Values of other authors in patent US20110195946A1, “HIGH SOLID D[…]” (priority 2008, published 2011).

Assays:
[1] = acute inhalation toxicity
[2] = acute oral mammalian toxicity

Structure (SMILES): [O-][n+]1ccccc1[S][Zn][S]c1cccc[n+]1[O-] [zinc pyrithione, bis(2-pyridylthio)zinc 1,1′ dioxide]
- LC50 (4 h) [1]: 1.03 µg/mL

Structure (SMILES): N#Cc1c(-c2ccc(Cl)cc2)[nH]c(C(F)(F)F)c1Br [Tralopyril, 4-bromo-2-(4-chlorophenyl)-5-(trifluoromethyl)-1H-pyrrole-3-carbonitrile]
- LD50 [2]: 28.7 mg/kg
